For one assay, the system named is healthy adult volunteers. As to the kind of experiment: Study 2: single sublingual dose of pure (-)-mesembrine in healthy adult volunteers. The assay is classed as in vivo. The settings on record: single 200 microgram sublingual dose in 1 ml of 60% ethanol. The protocol: Various […] studies of the effects of the compounds of the invention were carried out in adult volunteers as follows:
Study 2. N=2 Healthy Adult Volunteers, All Health Professionals Sep. 21, 1996.

A further assay relates to GABA B. As to the kind of experiment: Novascreen GABA B receptor screen. Format: binding. The settings on record: Average: N = 2; Concentration 5,0E1.
Another assay addresses Serotonin-uptake (Homo sapiens, UniProt P31645). Nature of the assay: Novascreen serotonin-uptake assay, with reference to imipramine HCl. Format: biochemical. The settings on record: for serotonin-uptake inhibition (in words): FIGS. 1 to 4, comparison with imipramine HCl. The text has this:
FIG. 2 is a graph for a serotonin-uptake assay of a whole plant extract of a plant from the family Mesembryanthemaceae, identified by the code number 18639, as well as some comparisons with the known serotonin-uptake inhibitor imipramine HCl;
FIG. 3 is a graph for a serotonin-uptake assay for mesembranol, identified by the code number 18623, as well as some comparisons with the known serotonin-uptake inhibitor imipramine HCl; and
FIG. 4 is a graph for a serotonin-uptake assay for mesembranone, identified by the code number 18622, as well as some comparisons with the known serotonin-uptake inhibitor imipramine HCl.
In addition, the whole plant extract of Sceletium N.E.Br., mesembranol and mesembranone were screened for biological activity by the National Institute of Mental Health in the United States of America through the contract with Novascreen.

Values joined by “and” are separate entries in the source; they are usually repeats but may differ in a detail not shown here. Equal entries are not always repeated. “Also recorded” adds a separate entry of the source.

Serotonin-uptake, sequence (P31645 whole entry): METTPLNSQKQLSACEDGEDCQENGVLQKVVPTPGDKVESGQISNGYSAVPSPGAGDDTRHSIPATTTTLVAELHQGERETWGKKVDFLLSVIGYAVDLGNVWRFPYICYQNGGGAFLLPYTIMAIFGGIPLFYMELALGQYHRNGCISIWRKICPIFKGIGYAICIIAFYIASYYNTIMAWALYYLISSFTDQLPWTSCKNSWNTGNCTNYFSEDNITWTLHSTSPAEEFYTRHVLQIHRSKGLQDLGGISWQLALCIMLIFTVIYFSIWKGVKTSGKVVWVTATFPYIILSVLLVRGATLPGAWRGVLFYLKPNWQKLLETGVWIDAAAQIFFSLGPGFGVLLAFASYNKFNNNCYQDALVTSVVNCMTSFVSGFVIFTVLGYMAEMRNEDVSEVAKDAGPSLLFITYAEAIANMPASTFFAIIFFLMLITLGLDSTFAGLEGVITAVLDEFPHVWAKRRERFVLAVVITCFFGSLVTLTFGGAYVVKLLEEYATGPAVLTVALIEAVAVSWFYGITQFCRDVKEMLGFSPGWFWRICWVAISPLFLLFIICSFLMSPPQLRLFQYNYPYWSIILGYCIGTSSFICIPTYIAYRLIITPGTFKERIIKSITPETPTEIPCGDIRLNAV

Turning to `COc1ccc(C23CCC(=O)CC2N(C)CC3)cc1OC` (single isomer, unassigned; (-)) [(-)-mesembrine, 3a-(3,4-dimethoxyphenyl)-octahydro-1-methyl-6H-indol-6-one], in the assay with healthy adult volunteers (N=2), the Anxiolytic effect entry is listed as “noted by both”, the “Duration of anxiolytic action” value is “five hours to eight hours” and the “Sustained elevation of mood” value is recorded as “noted by both”. Besides, in the assay on healthy adult volunteers (N=2, individual volunteers), the “Duration of sustained elevation of mood” value is “approximately eight; also recorded: eleven”; the Onset of action is 7 min and 12 min. The “Percent Inhibition, GABA B” value in the assay with GABA B is listed as -0,6%. Further, the “Percent Inhibition, Serotonin-uptake” value on Serotonin-uptake (Average: N = 2, Concentration 5,0E1) is on record as 96,5%. Besides, at Serotonin-uptake, the “serotonin-uptake inhibition (in words)” value was “highly potent serotonin-uptake inhibitor”.

Consider `COc1ccc(C23CCC(O)CC2N(C)CC3)cc1OC` (stereo not shown) [mesembranol], for which the “serotonin-uptake inhibition (in words)” value at Serotonin-uptake was “highly potent serotonin-uptake inhibitors”.

Consider `COc1ccc(C23C=CC(=O)CC2N(C)CC3)cc1OC` (stereo not shown) [mesembranone], for which the “serotonin-uptake inhibition (in words)” value on Serotonin-uptake is on record as “highly potent serotonin-uptake inhibitors”.
